{
  "source": "patent US20210387952A1",
  "about": "“SOLID STATE FORMS OF D[…] PROCESS FOR PREPARATION THEREOF” (TEVA PHARMACEUTICALS INTERNATIONAL GMBH, priority 2018, published 2021)",
  "experiment": "Solid state (polymorphic and chemical) stability on storage",
  "data": [
    {"smiles": "O=C(O)CNC(=O)c1c(O)n(C2CCCCC2)c(=O)n(C2CCCCC2)c1=O", "note": "[Form 3, 2-[(1,3-dicyclohexyl-2,4,6-trioxo-1,3-diazinane-5-carbonyl)amino]acetic acid]", "values": [
      {"measurement": "polymorphic and chemical stability", "setting": "crystalline solid form", "value": "polymorphically and chemically stable"},
      {"measurement": "storage time over which the form is stable", "setting": "stored in closed bottles", "value": "at least 2 weeks"}
    ]}
  ]
}
